# Experimental data reported in PMC8196580, “Identification of Kaurane-Type Diterpenes as Inhibitors of Leishmania Pteridine Reductase I” (Molecules, 2021).
# Where two headings read alike, the source gives them in different places.
# What was measured:
# L. major [1] = system: L. major; set-up: method as in ChEMBL; conditions: ref ChEMBL, cited from earlier work
# L. major [2] = assay: ChEMBL dataset of pIC50 values against L. major used for the RF model (Table S1); type: cell-based, Leishmania major; also: call rule not given here
# Text: From the ChEMBL database (https://www.ebi.ac.uk/chembl/, accessed on 10 January 2021), we selected a diverse set of 1085 structures that were initially classified according to their predicted activity against L. major.
# Excluding these structures minimized the differences in activity values resulting from errors and differences in experimental protocols. […] Standardizer software [JChem, version 16.11.28 (2016), calculation module developed by ChemAxon, https://www.chemaxon.com/, accessed on 20 January 2021] was used to canonize all simplified molecular-input line-entry system (SMILES) codes. After duplicate structures were removed, those with higher pIC50 values were eliminated, facilitating the generation of more restrictive models.
# [3] = ChemBL structures with pIC50 values used for Random forest model construction (Table S1)
# [4] = Active/Inactive class assigned to ChemBL structures for Random forest model construction (Table S1)
# [5] = ChemBL structures with pIC50 values used for Random forest model construction, L. major
# [6] = Active/Inactive class assigned to the ChEMBL pIC50 value for Random forest model construction, ref ChEMBL
Structure (SMILES),pIC50 Value (L. major [1]; [3]),Outcome (L. major [2]; [4]),pIC50 Value (L. major [1]; [5]),Outcome (L. major [2]; [6])
C[C@@H]1CC[C@H]2[C@@H](C)C(=O)O[C@@H]3O[C@@]4(C)CC[C@@H]1[C@]32OO4 [CHEMBL269671],6.12,Active,–,–
c1ccc2c(-c3cnc4n3CCS4)c[nH]c2c1 [CHEMBL1255759],–,–,4.11,Inactive
CCCNC(=N)c1ccc(N2CCN(c3nnc(-c4ccc([N+](=O)[O-])o4)s3)CC2)cc1.Cl [CHEMBL1783203],–,–,5.00,Active
c1c[nH]c(-c2nc3ccccc3[nH]2)c1 [CHEMBL2298016],5.46,Active,–,–
COc1ccccc1C(=O)N/N=C/c1ccccn1 [CHEMBL2382029],–,–,4.22,Inactive
CC[C@H](CO)Nc1nc(NCc2cc(C)ccc2O)c2ncn(C(C)C)c2n1 [CHEMBL3423080],5.64,Active,–,–
COc1ccc(/C=N/NC(=O)c2ccccc2OC)c(O)c1 [CHEMBL2382050],–,–,4.88,Inactive
NP(=O)(OCc1ccc([N+](=O)[O-])cc1F)N(CCCl)CCCl (stereo not shown) [CHEMBL1256991],5.33,Active,–,–
Cc1ccc2cc(C3CC(c4sccc4Br)=NN3)c(Cl)nc2c1 (stereo not shown) [CHEMBL2236143],5.68,Active,–,–
N=C(N)c1ccc(OCCCCCOc2ccc(C(=N)N)cc2)cc1 [CHEMBL55],–,–,4.82,Inactive
CN1CCN(S(=O)(=O)c2ccc(-c3ccc4c(Nc5ncc(Cl)cn5)ccnc4c3)cc2)CC1 [CHEMBL3637895],–,–,5.07,Active
CO[C@H]1C[C@@H](C)[C@H]2[C@H](C[C@@]3(C)[C@@H]4C[C@H](O)[C@H]5C(C)(C)[C@@H](O[C@@H]6OC[C@@H](O)[C@@H](O)[C@H]6O)CC[C@@]56C[C@@]46CC[C@]23C)O1 [CHEMBL450438],–,–,4.03,Inactive
CC(C)=CCC/C(C)=C/CC/C(C)=C/COc1ccc2ccc(=O)oc2c1 [CHEMBL156127],–,–,4.88,Inactive
COc1ccc(/C=N/NC(=O)c2ccccc2OC)cc1 [CHEMBL2382041],–,–,4.40,Inactive
Cc1ccc(N2C(=O)C(c3ccc(C)cc3)(c3ccc(C)cc3)C2c2cn(C)c3ccccc23)cc1 (stereo not shown) [CHEMBL2071565],5.89,Active,–,–
COc1cc(OC)c2c(C)[n+](-c3ccc(Br)cc3)c(C)cc2c1.F[B-](F)(F)F [CHEMBL520594],–,–,4.71,Inactive
COc1ccccc1C(=O)N/N=C/c1ccc(O)cc1O [CHEMBL2382048],–,–,4.05,Inactive
CC1=N[C@H](C)Cc2c(-c3ccc(C)cc3)ccc(O)c21 [CHEMBL1275822],–,–,4.07,Inactive
c1ccc(-c2nc3cnccn3c2-c2ccccc2)cc1 [CHEMBL3634350],–,–,4.58,Inactive
COc1cc(OC)c2c(C)[n+](-c3c(C)cc(C)cc3C)c(C)cc2c1.F[B-](F)(F)F [CHEMBL480824],5.83,Active,–,–

Structure (SMILES),pIC50 Value (L. major [1]; [3]),Outcome (L. major [2]; [4]),pIC50 Value (L. major [1]; [5]),Outcome (L. major [2]; [6])
C/C=C(\C)C(=O)NC1=CC[C@@]2(C)C(=CC[C@H]3[C@@H]4CC[C@H]([C@H](C)NC)[C@@]4(C)CC[C@@H]32)C1=O [CHEMBL525190],–,–,4.67,Inactive
CC1=N[C@H](C)Cc2c(-c3ccc4ccccc4c3)ccc(O)c21 [CHEMBL1276918],–,–,4.46,Inactive
Fc1ccc(-c2nc3ccccn3c2-c2ccccc2)cc1 [CHEMBL2151873],–,–,4.64,Inactive
c1ccc2c(Nc3ccc(NC4CCCCC4)cc3)c3ccccc3nc2c1 [CHEMBL89171],6.26,Active,–,–
Cc1cc(COP(N)(=O)N(CCCl)CCCl)ccc1[N+](=O)[O-] (stereo not shown) [CHEMBL1256989],–,–,4.52,Inactive
Cc1ccc(-c2nc3ccccc3[nH]2)cc1 [CHEMBL2283280],5.42,Active,–,–
CC(C)Oc1cc(NC(=N)c2ccccn2)ccc1-c1ccc(-c2ccc(NC(=N)c3ccccn3)cc2OC(C)C)o1 [CHEMBL1275764],7.85,Active,–,–
CC1=N[C@H](C)Cc2c(-c3cccc(Cl)c3)ccc(O)c21 [CHEMBL1275866],–,–,4.28,Inactive
COc1ccccc1-c1nnc(-c2ccc(C(=O)N/N=C/c3ccc(Cl)cc3Cl)cc2)o1 [CHEMBL4068809],–,–,5.29,Active
Cc1ccc(/N=C/c2cn(C)c3ccccc23)cc1 [CHEMBL2071553],5.58,Active,–,–
CCCCNC(=N)c1ccc(N2CCN(c3nnc(-c4ccc([N+](=O)[O-])o4)s3)CC2)cc1.Cl [CHEMBL1783204],–,–,4.96,Inactive
CCc1ccc(-[n+]2c(C)cc3cc(OC)cc(OC)c3c2C)cc1.F[B-](F)(F)F [CHEMBL479649],–,–,5.26,Active
Cc1cccc2nc(-c3ccc(C(=O)N/N=C/c4cccc(O)c4O)cc3)[nH]c12 [CHEMBL3317782],–,–,4.42,Inactive
CC(=O)N1CCN(c2nnc(-c3ccc([N+](=O)[O-])s3)s2)CC1 [CHEMBL193546],–,–,4.31,Inactive
COc1ccc(CCN(C)CCCC(C#N)(c2ccc(OC)c(OC)c2)C(C)C)cc1OC (stereo not shown) [CHEMBL6966],–,–,4.39,–
CC(=O)C1=C(CNc2ccc(C(=O)/C=C/c3ccc(O)cc3)cc2)N(C)C(=O)NC1c1ccccc1 (stereo not shown) [CHEMBL3786140],5.98,Active,–,–
CCCCCCN(C)c1ccc(Nc2c3ccc(Cl)cc3nc3ccc(OC)cc23)cc1 [CHEMBL315133],5.74,Active,–,–
COc1ccc(-c2ccccc2)c2c1C(C)=N[C@H](C)C2 [CHEMBL1275787],–,–,4.00,Inactive
COc1ccc(-[n+]2c(C)cc3cc(OC)cc(OC)c3c2C)cc1.F[B-](F)(F)F [CHEMBL481565],–,–,4.00,Inactive
c1ccc(-c2nc3ccccc3[nH]2)cc1 [CHEMBL153535],5.46,Active,–,–

Structure (SMILES),pIC50 Value (L. major [1]; [3]),Outcome (L. major [2]; [4]),pIC50 Value (L. major [1]; [5]),Outcome (L. major [2]; [6])
COc1cc(/C=N/NC(N)=S)ccc1OCc1cn(CC(=O)c2ccc(F)cc2)nn1 [CHEMBL4170543],–,–,5.16,Active
O=C(c1cccs1)N1CCN(c2nnc(-c3ccc([N+](=O)[O-])s3)s2)CC1 [CHEMBL464864],–,–,4.55,Inactive
COc1ccc(/C=N/NC(=O)c2ccc(-c3nnc(-c4ccccc4OC)o3)cc2)c(O)c1 [CHEMBL4090407],–,–,5.18,Active
Cc1ccc(/C=C/C(=O)C2=Cc3cc(Cl)ccc3OC2)cc1 [CHEMBL1094967],5.56,Active,–,–
O=C(c1ccc(Cl)s1)N1CCN(c2nnc(-c3ccc([N+](=O)[O-])o3)s2)CC1 [CHEMBL516307],–,–,4.93,Inactive
COc1ccc(C(=O)/C=C/c2ccc(-n3ccnc3)cc2)cc1OC [CHEMBL570484],5.61,Active,–,–
C=C[C@@]1(C)CC2=C(C[C@H]1C(=C)C)C(=O)C=CC2=O [CHEMBL401583],–,–,4.06,Inactive
N=C(N)c1ccc(OCCCCCOc2ccc(C(=N)N)cc2)cc1.O=S(=O)(O)CCO [CHEMBL935],–,–,4.08,Inactive
CCCCc1ccc(-[n+]2c(C)cc3cc(OC)cc(OC)c3c2C)cc1.F[B-](F)(F)F [CHEMBL481023],5.57,Active,–,–
CC1=N[C@H](C)Cc2c(-c3cccc4ccccc34)ccc(O)c21 [CHEMBL1276916],–,–,4.87,Inactive
O=[N+]([O-])c1ccc(-c2nnc(NCc3cn(Cc4c(F)cccc4Cl)nn3)s2)o1 [CHEMBL1951532],–,–,4.76,Inactive
CC(C)c1ccc(-c2nc3ccccc3[nH]2)cc1 [CHEMBL2298014],5.57,Active,–,–
Cn1c([N+](=O)[O-])cnc1-c1nnc(N2CCN(C(=O)c3cccs3)CC2)s1 [CHEMBL482666],–,–,4.59,Inactive
Cc1ccc(Cn2cc(CNc3nnc(-c4ccc([N+](=O)[O-])o4)s3)nn2)cc1 [CHEMBL1951530],–,–,4.91,Inactive
O=[N+]([O-])c1ccc(-c2nnc(NCc3cn(Cc4ccc(Cl)c(Cl)c4)nn3)s2)o1 [CHEMBL1951535],–,–,3.88,Inactive
O=C(/C=C/C1=Cc2cc(Cl)ccc2OC1)c1ccc(Cl)cc1Cl [CHEMBL1097966],5.72,Active,–,–
Nc1ccc2ncnc(Nc3ccc(OCc4cccc(F)c4)c(Cl)c3)c2c1 [CHEMBL3637893],–,–,4.98,Inactive
COc1cc(OC)c2c(C)[n+](-c3cccc4ccccc34)c(C)cc2c1.F[B-](F)(F)F [CHEMBL479641],5.79,Active,–,–
Cc1ccc2cc(C3CC(c4cc(C)sc4C)=NN3)c(Cl)nc2c1 (stereo not shown) [CHEMBL2236139],5.67,Active,–,–
CCOC(=O)C1=C(COCCN)NC(C)=C(C(=O)OC)C1c1ccccc1Cl (stereo not shown) [CHEMBL1491],5.47,–,–,–
